From patent US10683267B1, “Antidiabetic compounds” (King Abdulaziz University, priority 2019, dated 2020)
Entries after “also recorded” stand apart in the source; their conditions may differ. Like-named read-outs stand apart in the source and are kept apart here. Marks after values point to notes of the source that are not given here.

How the values were obtained:
[1] = system: diabetic mice; assay: Oral glucose tolerance test (OGTT) after single dose in diabetic mice; format: in vivo; settings: for R.P. to Vildagliptin (Single Dose): Table 6, relative potency, B.G. = blood glucose; for AUC of blood glucose in OGTT (X, mean): glucose load 2 g/kg 2 h later, AUC 0-120 min
Description: (§1) The Biochemical and Research Ethical Committee of King Abulaziz University (Jeddah, Saudi Arabia), in accordance with the NIH guidelines, approved all procedures, and the animals received human care during the experimental period. Experiments were carried out using adult male Swiss albino mice (SWR), of 8-9 weeks age and 30-35 g weight. Animals were purchased from the animal house of the King Fahed Medical Research center (KFMRC), Jeddah, Saudi Arabia. Mice were kept at a constant temperature of 24-25° C. and were subjected to a controlled 12 h light-dark cycle; they had free access to water and pelleted diet ad libitum.
(§2) Nicotinamide (210 mg/kg b.w.), dissolved in saline, was injected intraperitoneally 15 min before the intraperitoneal injection of Streptozotocin (STZ) (Sigma, 180 mg/kg b.w.), which was freshly prepared in citrate buffer (pH 4.5). Control animals received both vehicles. During the experimental period, animals' food intake and body weight gain were monitored once a week.
Oral glucose tolerance tests were performed in 14 h overnight fasted diabetic mice that were pretreated with a single oral dose of the tested compounds. […] The drugs were suspended in carboxymethyl cellulose (CMC)-Na (1% in distilled water) and the dosing volume was adjusted at 10 mL/kg body weight of the mouse. Then an oral glucose load was administered (2 g/kg) 2 h after drug treatment. Blood glucose levels were determined using the Accu-check Go® (Roche Diagnostics, Michigan, USA). Samples were collected just before drug administration (fasting blood glucose), then at 2 h after drug treatment (immediately before glucose loading). Then blood sample collection was continued at 20, 40, 60 and 120 min intervals after glucose loading.
Animals were distributed between three categories of groups. Each group is composed of six animals (n=6) […] as follows:
Category 1: One group of animals were 14 h overnight-fasted normoglycemic mice and vehicle-treated (1% CMC-Na) at a dose of 10 ml/kg.
Category 2: Another group of animals was overnight fasted diabetic mice received the vehicle (1% CMC-Na) at a dosing volume of 10 ml/kg and served as a negative control.
Category 4: Animals of these groups were overnight fasted diabetic mice received the tested compounds at a dose of 50 mg/kg in 1% CMC (volume of 10 ml/kg).

[2] = system: diabetic mice; assay: Fasting blood glucose of diabetic mice treated daily for 6 consecutive days; format: in vivo; settings: 50 mg/kg oral daily
Description: as §1, §2
(§3) On the same groups that received the single dose treatment, the tested compounds were given daily by oral gavage for six consecutive days. On day 6, the overnight fasted diabetic mice were pretreated with the 6th oral dose of the tested compounds. Two hours later, an oral glucose was loaded (2 g/kg/10 ml b.w.). Blood glucose levels were determined using the Accu-check Go®. Samples were collected just before drug administration (Fasting Blood glucose), then 2 h after drug treatment and before glucose administration. Samples collection was continued at 20, 40, 60 and 120 min intervals after glucose loading.
The oral glucose tolerance test (OGTT) was performed over six days on diabetic mice. The glucose level was monitored daily (Table 3). The results were analyzed for activities after a single dose (Table 4) and after the 6th dose of the drug (Table 5).

[3] = system: diabetic mice; assay: Oral glucose tolerance test (OGTT) after multiple doses (6 days) in diabetic mice; format: in vivo; settings: for AUC % change from diabetic control / AUC Δ from diabetic control / Relative potency to vildagliptin / AUC of blood glucose in OGTT (X, mean): 50 mg/kg oral for 6 days; for Relative potency to vildagliptin: OGTT AUC; for AUC of blood glucose in OGTT (X, mean): glucose load 2 g/kg 2 h after 6th dose, AUC 0-120 min; for R.P. to Vildagliptin (6 Days): Table 6, relative potency, B.G. = blood glucose
Description: as §1, §2, §3

[4] = biological target: T1, DPP-IV enzyme (Homo sapiens, UniProt P27487); assay: In vitro DPP-IV inhibition assay (Biovision kit, fluorescence); format: biochemical; settings: for DPP-4 enzyme inhibition activity, in words: SAR discussion
T1 construct: purchased Biovision (Milpitas, Calif., USA)
Description: DPP-IV inhibition assay was conducted using a kit purchased from Biovision (Milpitas, Calif., USA). Briefly, DPP-IV enzyme was diluted with Tris buffer and pipetted 50 μl into glass mini-cells. […] Finally a volume of 25 μl of DPP-IV substrate was added into each tube. The fluorescence generated from hydrolysis of the substrate was read at Ex/Em=360/460 nm using Modulus® single tube multimode reader (Promega, USA). Baseline fluorescence was recorded before incubation (R1) and 20 min after incubation (R2).
The standard DPP-IV inhibitor drug sitagliptin employed as positive control. […] Sigmoidal concentration-response curves for DPP-IV % inhibition versus log concentration were plotted using Graphpad prism software, version 5.00 (GraphPad Software, Inc. La Jolla, Calif., USA).

[5] = Table 2, head prints no unit, nM per Table 6, read-out: IC50
[6] = read-out: enzymatic inhibition value / inhibitory activity (IC50)

T1 sequence (P27487 whole entry, species assumed): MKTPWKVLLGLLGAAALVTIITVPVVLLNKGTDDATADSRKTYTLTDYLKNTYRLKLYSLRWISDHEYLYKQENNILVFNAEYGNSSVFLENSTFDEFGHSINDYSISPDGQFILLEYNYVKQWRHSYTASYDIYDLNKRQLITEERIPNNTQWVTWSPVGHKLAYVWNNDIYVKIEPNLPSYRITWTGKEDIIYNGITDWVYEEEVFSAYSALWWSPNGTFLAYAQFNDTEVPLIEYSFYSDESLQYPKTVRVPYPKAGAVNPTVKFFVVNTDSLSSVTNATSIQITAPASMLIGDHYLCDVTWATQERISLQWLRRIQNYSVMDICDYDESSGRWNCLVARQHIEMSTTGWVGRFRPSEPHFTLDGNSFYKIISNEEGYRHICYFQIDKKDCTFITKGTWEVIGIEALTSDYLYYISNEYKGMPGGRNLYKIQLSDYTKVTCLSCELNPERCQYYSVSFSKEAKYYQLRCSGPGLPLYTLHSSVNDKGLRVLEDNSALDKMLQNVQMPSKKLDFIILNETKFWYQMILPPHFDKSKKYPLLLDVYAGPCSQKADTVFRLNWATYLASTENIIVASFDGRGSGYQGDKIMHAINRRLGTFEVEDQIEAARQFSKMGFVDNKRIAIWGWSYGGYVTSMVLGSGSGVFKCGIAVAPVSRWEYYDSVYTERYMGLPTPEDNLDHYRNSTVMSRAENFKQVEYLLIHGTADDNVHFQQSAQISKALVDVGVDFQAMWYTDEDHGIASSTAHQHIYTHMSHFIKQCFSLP

SMILES	IC50 [4, 5] [nM]	IC50 ([4]; Table 6, read-out: IC50) [nM]	IC50 [4, 6] [nM]	% Inhibition @ 100 nM ([4]; compound at 100 nM) [%]	R.P. to Vildagliptin (Single Dose) [1]	AUC % change from diabetic control ([1]; single oral dose 50 mg/kg) [%]	AUC Δ from diabetic control ([1]; single oral dose 50 mg/kg) [mg·min/dL]	AUC of blood glucose in OGTT (X, mean) ([1]; single oral dose 50 mg/kg)	Fasting blood glucose level, Day 1 [2]	Fasting blood glucose level, Day 2 [2]	Fasting blood glucose level, Day 3 [2]	Fasting blood glucose level, Day 4 [2]	Fasting blood glucose level, Day 5 [2]	Fasting blood glucose level, Day 6 [2]	AUC % change from diabetic control [3] [%]	AUC Δ from diabetic control [3] [mg·min/dL]	Relative potency to vildagliptin [3]	AUC of blood glucose in OGTT (X, mean) [3]	R.P. to Vildagliptin (6 Days) [3]	DPP-4 enzyme inhibition activity, in words [4]	also measured
O=C(CNC12CC3CC(CC(C3)C1)C2)Nc1ccccn1 [Compound 119, 2-[(adamantan-1-yl)amino]-N-(pyridin-2-yl)acetamide]	1.58	1.58	1.6		1.417	−46.99	23997	27068* mg · dL^−1 · min	149.60 ± mg/dL	103.40 ± mg/dL	104.80 ± mg/dL	148.60 ± mg/dL	107.60 ± mg/dL	118.60 ± mg/dL	−23.26	12250	0.64	40405* mg · dL^−1 · min	1.26	best functionality in enzyme inhibition activity	DPP-4 enzyme inhibition activity, in words ([4]; listed as GLP-119): high level of potency both in vitro and in vivo; inhibition at 0.1 µM ([4]; compound at 100 nM): 58%
N#Cc1cccc(NC(=O)CNC23CC4CC(CC(C4)C2)C3)c1 [Compound 110]	3.02	3.02	3	65.51	1.11		18801	32264* mg · dL^−1 · min	165.00 ± mg/dL	107.20 ± mg/dL	83.00 ± mg/dL	105.60 ± mg/dL	111.80 ± mg/dL	121.40 mg/dL	−30.05	15825	0.83	36830* mg · dL^−1 · min	0.27	high affinity towards the enzyme	
O=C(CNC12CC3CC(CC(C3)C1)C2)Nc1ccc(Cl)cc1 [Compound 112]	7.41	7.41		61.82	1.14	−37.78	19295	31770* mg · dL^−1 · min	159.20 ± mg/dL	114.40 ± mg/dL	84.40 ± mg/dL	115.40 ± mg/dL	132.40 ± mg/dL	122.00 ± mg/dL	−16.99	8947	0.46	43708* mg · dL^−1 · min	0.79	high DPP-4 inhibition	

The next lines start with results.

IC50 [4, 5] [nM]	IC50 ([4]; Table 6, read-out: IC50) [nM]	IC50 [4, 6] [nM]	% Inhibition @ 100 nM ([4]; compound at 100 nM) [%]	SMILES	R.P. to Vildagliptin (Single Dose) [1]	AUC % change from diabetic control ([1]; single oral dose 50 mg/kg) [%]	AUC Δ from diabetic control ([1]; single oral dose 50 mg/kg) [mg·min/dL]	AUC of blood glucose in OGTT (X, mean) ([1]; single oral dose 50 mg/kg)	Fasting blood glucose level, Day 1 [2]	Fasting blood glucose level, Day 2 [2]	Fasting blood glucose level, Day 3 [2]	Fasting blood glucose level, Day 4 [2]	Fasting blood glucose level, Day 5 [2]	Fasting blood glucose level, Day 6 [2]	AUC % change from diabetic control [3] [%]	AUC Δ from diabetic control [3] [mg·min/dL]	Relative potency to vildagliptin [3]	AUC of blood glucose in OGTT (X, mean) [3]	R.P. to Vildagliptin (6 Days) [3]	DPP-4 enzyme inhibition activity, in words [4]	also measured
116	> 100			O=C(CNC12CC3CC(CC(O)(C3)C1)C2)Nc1cccc(C(F)(F)F)c1 [Compound 15]	1.18	−39.13	19985	31080* mg · dL^−1 · min	167.20 ± mg/dL	87.80 ± mg/dL	177.60 ± mg/dL	166.80 ± mg/dL	175.80 ± mg/dL	161.80 mg/dL	−26.07	13729	0.72	38926* mg · dL^−1 · min	0.72	did not show good activity; also recorded: generally weak	% Inhibition (values marked *: inhibition at 1000 nM) ([4]; compound at 1000 nM): 97.81* %
			45.61	COC(=O)c1ccccc1NC(=O)CNC12CC3CC(CC(O)(C3)C1)C2 [Compound 16]		−39.51	20179	30886* mg · dL^−1 · min	174.00 mg/dL	93.80 ± mg/dL	158.40 ± mg/dL	127.40 ± mg/dL	171.00 ± mg/dL	107.60 ± mg/dL	−52.53	28183	1.45	24472* mg · dL^−1 · min		weakened the enzyme inhibition activities	Relative potency to vildagliptin ([1]; single oral dose 50 mg/kg, OGTT AUC): 1.19
